# Experimental data published in patent US12710419B2, “3D sensors for simultaneous detection of bioelectronic and biomechanical signals in tissue” (UNIVERSITY OF MASSACHUSETTS, priority 2022, dated 2026).
# Test system: cardiomyocytes
# Test: Drug tests on cultured cardiomyocytes recorded with 3D nanotransistor biosensor (AP and mechanical signals)
# Assay type: cell-based, human
# Conditions: for amplitude of AP / amplitude of broad peaks (mechanical signal): after adding drug, 20 μM, electrical recording
# Description: Human embryonic stem cell-derived cardiomyocytes (hESC-CMs), which are considered promising in vitro models of cardiac health and disease, were cultured on the device substrate.
# As part of experimental trials, drug tests were performed to further reveal the potential of implementing the sensors in pharmacological and pathological studies on cells. Blebbistatin, an inhibitor of myosin essential for motile machinery, was used to suppress cell contraction, as shown in FIG. 3A.
# Conversely, lidocaine, a Na+ channel blocker, was added to suppress Na+ influx which contributes mostly to extracellular AP, as shown in FIG. 3D.
# A Ca^2+ dysfunctional model was also built by treating the cardiomyocytes with isradipine, a Ca^2+ channel blocker used for treating a wide variety of cardiovascular disorders, as shown in FIG. 3G and its inset.
# Cardiomyocytes were differentiated from human embryonic stem cells (hESCs, WAe009-A, H9) and human induced pluripotent stem cells (hiPSCs, generated from human primary T cells using episomal reprogramming) following methods described previously. Briefly, both cell types were maintained in the 60 mm tissue culture dishes coated with 10 ug/mL Matrigel in DMEM-F12 (Gibco™) using Essential 8 medium (Gibco™) and sub-passaged every 3-4 days. During differentiation, cells were seeded in a 12-well plate for 2-3 days until confluency, then replaced with RPMI 1640 medium (Gibco™) plus 1% B27-insulin (Gibco™) and 8 μM CHIR99021 (Tocris Bioscience™) (day 0). After 24 h (day 1), the medium was changed to RPMI 1640 plus 1% B27-insulin. On day 3, day 5, and day 7, the medium was changed to RPMI 1640 plus 1% B27-insulin and 5 μM IWR-1-endo (Cayman Chemical), RPMI 1640 plus 1% B27-insulin, and RPMI 1640 plus 1% B27, respectively. The medium was then replaced with RPMI 1640 plus 1% B27 every other day. […] During days 10-15, cardiomyocytes were ready for experiments. The cells were rinsed with 1×DPBS to remove calcium and inhibit contraction, then incubated with 0.5 mL of 0.5 mM Trypsin-EDTA (Gibco™) for 5 mins in a 37° C. incubator to dissociate into single cells. The EDTA was then aspirated, and the cells were dissociated by gently pipetting with 2 mL RPMI 1640 plus 1% B27 using a 1 ml pipet tip. The cells were transferred to a 15 mL conical tube and centrifuged at 250 g for 3 minutes, then resuspended with 2 mL RPMI 1640 plus 1% B27 supplemented with 10% Fetal Bovine Serum (Gibco™) and 10 μM Y-27632 ROCK inhibitor (Tocris Bioscience™). The device substrate integrated with nanotransistors was sterilized by incubating in 70% ethanol solution (1 h) at room temperature and then UV-treated (1 h). The device was coated with 20 μg/mL Matrigel in RPMI 1640 for 1 h at 37° C. Cells were seeded on the device substrate at the density of 3-5×10^5/cm^2. The cardiomyocytes were maintained using RPMI 1640 plus 1% B27 by changing the medium daily. Electrical recordings were typically performed starting from day 5 after the cell seeding.
# All in vitro electrical recordings were carried out at the ambient environment with an Au reference electrode.
# [1] = treatment, concentration not given
compound,measurement,setting,value
CCN(CC)CC(=O)Nc1c(C)cccc1C [lidocaine],amplitude of AP,,prominent suppression
same,amplitude of broad peaks (mechanical signal),,no obvious effect
same,AP amplitude,"after lidocaine 20 μM, before ~10 nS",~ 2 nS
same,AP duration,"after lidocaine 20 μM, before ~19 ms",~ 40 ms
COC(=O)C1=C(C)NC(C)=C(C(=O)OC(C)C)C1c1cccc2nonc12 (centres unmarked) [isradipine],AP,"isradipine treatment, 20 nM",concurrent decrease
same,mechanical signal,"isradipine treatment, 20 nM",apparent suppression
same,time to apparent suppression of mechanical signal,"isradipine treatment, 20 nM",about 100 seconds
same,mechanical and AP signals after washing out,washing out isradipine,restored both signals
Cc1cccc(CCN2CCC(C(=O)c3ccc(NS(C)(=O)=O)cc3)CC2)n1 [E-4031],contractile frequency and amplitude,[1],fluctuations in contractile frequency and amplitude
Cc1ccc2c(c1)C(=O)C1(O)CCN(c3ccccc3)C1=N2 (centres unmarked) [blebbistatin],amplitude of AP,,maintained the similar level
same,amplitude of broad peaks (mechanical signal),,substantial decrease
same,broad peaks (mechanical signal) after washing out,washing out blebbistatin,restored the broad peaks
NC[C@H](O)c1ccc(O)c(O)c1 [norepinephrine],conduction pathway,[1],alteration of the conduction pathway
same,contractile frequency,[1],increased contractile frequency
